Source: article PMC7534198, “The structural basis for the selectivity of sulfonamido dicarbaboranes toward cancer-associated carbonic anhydrase IX” (Journal of Enzyme Inhibition and Medicinal Chemistry, 2020)

Assays:
[1] = biological target: T1, CA II (Homo sapiens, UniProt P00918); experiment: stopped-flow CO2 hydration; format: biochemical; details: 8.5 mM CO2, 20 mM HEPES-Na pH 7.5, 20 mM Na2SO4, 25 °C, 2.5 nM enzyme; Cheng-Prusoff; read-out: In vitro inhibition / Ki (CA II)
T1 construct: gene CA2; recombinant, expressed in E. coli and purified
Description: stopped-flow CO2 hydration on CA II

[2] = biological target: T2, CA IX (Homo sapiens, UniProt Q16790, C174S); experiment: stopped-flow CO2 hydration; format: biochemical; details: 8.5 mM CO2, 20 mM HEPES-Na pH 7.5, 20 mM Na2SO4, 25 °C, 0.0025% DDM, 0.5 nM enzyme; Cheng-Prusoff; read-out: In vitro inhibition / Ki (CA IX)
T2 construct: gene CA9; extracellular part, PG and CA domains, residues 38-391, C174S; expressed in HEK 293 cells and purified
Description: stopped-flow CO2 hydration on CA IX

| Ki [1] [nM] | Ki [2] [nM] | Substance |
| --- | --- | --- |
| 1300 ± 122 | 14.8 ± 1.98 | 1-H2NSO2(CH2)5-1,2-closo-C2B10H11 [5a] |
| 821 ± 70.7 | 44.6 ± 4.86 | 1-H2NSO2(CH2)6–1,2-closo-C2B10H11 [6a] |
| 299 ± 26 | 10.6 ± 1.37 | [7-H2NSO2-(CH2)5–7,8-nido-C2B9H11]K [5b^−] |
| 29.5 ± 3.32 | 29.3 ± 7.39 | [7-H2NSO2-(CH2)6–7,8-nido-C2B9H11]K [6b^−] |
